The record followed here is publication PMC5424463, “A strategy based on nucleotide specificity leads to a subfamily-selective and cell-active inhibitor of N ^6-methyladenosine demethylase FTO” (Chemical Science, 2014).

A word on the IC50: it is the concentration that gives 50% inhibition.

Structures are written as SMILES. Several values for one entry are separate records, joined by “and”; a condition that tells them apart may be missing. Identical values can stand only once.

The target in experiment [1] is T1, AlkB (Escherichia coli, UniProt P05050).
T1 construct: made in house; host or cells: E. coli BL21 (DE3) Rosetta T1R
T1 sequence (P05050 12-216): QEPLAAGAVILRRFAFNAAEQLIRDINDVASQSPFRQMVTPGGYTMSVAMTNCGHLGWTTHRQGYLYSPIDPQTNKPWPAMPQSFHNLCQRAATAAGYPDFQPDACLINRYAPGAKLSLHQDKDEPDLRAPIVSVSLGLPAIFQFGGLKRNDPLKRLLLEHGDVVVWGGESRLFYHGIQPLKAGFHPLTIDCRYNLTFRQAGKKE
Briefly: Differential scanning fluorimetry (DSF)-based binding assay, AlkB. The note with it: 100 μM compound, 2 μM protein, 50 μM MnCl2, read-out: Tm shift (AlkB). The method, then:
(§1) Superdex-200 column (GE Healthcare) pre-equilibrated with 20 mM HEPES, pH 7.5, 300 mM NaCl, 10% (v/v) glycerol, 0.5 mM TCEP. […]
(§2) Differential scanning fluorimetry (DSF)-based binding assay
(§3) DSF-based binding assay was performed using a MiniOpticon™ Real-Time PCR Detection System (Bio-Rad), monitoring protein unfolding using SYPRO orange (Invitrogen) according to the reported method.[16] FAM (492 nm) and ROX (610 nm) filters were used for excitation and emission respectively. Reaction mixes contained 2 μM protein, 50 μM MnCl2, 100 μM compounds, 5x SYPRO orange in a final volume of 50 μl. Reagents were prepared in 50mM HEPES buffer, pH 7.5 except metals, which were dissolved as 100 mM stocks in 20 mM HCl, then further diluted in MilliQ water. Compounds tested were prepared in 100% DMSO and added such that the final concentration of DMSO was not more than 1% v/v of assay […]
(§4) mix. Fluorescence readings were taken every 1°C in the range 25-95°C, with the temperature increased linearly by 1°C min -1. The software provided was used to perform global minimum subtraction. The inflection point, representing Tm, was calculated by fitting the Boltzmann equation to the sigmoidal curves obtained; data were processed using GraphPad Prism 6.0™.
(§5) The Tm shift caused by the addition of small molecules/ fragments was determined by subtraction of the “reference” Tm (protein incubated with metal and 1% v/v DMSO) from the Tm obtained in the presence of the compound. The assay was performed in triplicate for each inhibitor, with standard deviations typically < 1°C. […]
On the technique in general: DSF heats the sample and reads unfolding from a dye or from intrinsic fluorescence.

The target of experiment [2] is T2, ALKBH2 (Homo sapiens, UniProt Q6NS38).
T2 construct: made in house; host or cells: E. coli BL21 (DE3)
T2 sequence (Q6NS38 56-258): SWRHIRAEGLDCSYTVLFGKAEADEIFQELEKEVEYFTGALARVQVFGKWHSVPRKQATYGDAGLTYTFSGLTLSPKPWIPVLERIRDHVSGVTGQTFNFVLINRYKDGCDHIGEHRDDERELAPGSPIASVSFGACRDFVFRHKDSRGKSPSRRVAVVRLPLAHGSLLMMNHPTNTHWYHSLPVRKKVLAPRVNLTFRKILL
Briefly: Differential scanning fluorimetry (DSF)-based binding assay, ALKBH2. The note with it: DSF, 100 μM compound, 2 μM protein, 50 μM MnCl2; read-out: Tm shift (ALKBH2). The method, then:
as §1, §2, §3, §4, §5

The target of experiment [3] is T1, AlkB. As to the kind of experiment: HPLC-based inhibition assay for AlkB, m1A-ssDNA substrate. Format: biochemical. The method, then: (§6) HPLC-based inhibition assays for AlkB and ALKBH2
(§7) The assay was modified from previously reported method.[18] A 15-mer m1A-ssDNA substrate with the sequence 5’-AAAGCAG(m1A)ATTCGAA-3 ’ (Yale University, W.M.
(§8) Keck Foundation Biotechnology Resource Laboratory) was used in this inhibition assay. The assay was performed in triplicate for each inhibitor, in a final reaction volume of 25 µL.
(§9) Reaction consisted of AlkB (1 µM) or ALKBH2 (2 µM), 2OG (50 µM), (NH4)2Fe(SO4)2·6H2O (50 µM), L-ascorbate (2 mM), m1A-ssDNA substrate (10 µM), in 50 mM HEPES buffer, pH 7.5, and inhibitor at various concentrations (final DMSO concentration not more than 1% v/v of assay mix). The reaction was incubated at 4°C for 10 min, before analysis on a bio-inert HPLC system. The m1A-ssDNA substrate and the corresponding demethylated product were separated using a Dionex DNAPac PA200 anion-exchange column (8 µm, […]) with a gradient of 98% solvent A (50 mM sodium citrate buffer, pH 5.5) to 65% solvent B (50 mM sodium citrate buffer, pH 5.5 with 1.25 M sodium chloride) over 18 min, at a flow rate of 1 mL/min at 40°C. The UV detection wavelength was set at 266 nm. The percentage inhibition was estimated based on the peak areas of the m1A-ssDNA substrate and the corresponding demethylated product. For IC50 determination, eight different concentrations of inhibitors were used (0, 1, 3, 10, 30, 100, 300, […]
(§10) different inhibitor concentrations, using nonlinear regression, with normalized dose-response fit on GraphPad Prism 6.0™. […]

The target of experiment [4] is T2, ALKBH2. Briefly: HPLC-based inhibition assay for ALKBH2, m1A-ssDNA substrate. Format: biochemical. The method, then:
as §6, §7, §8, §9, §10

A further experiment addresses T3, ALKBH3 (Homo sapiens, UniProt Q96Q83).
T3 construct: Human ALKBH3 (encompassing residues 1- 286); purchased ProSpec-Tany Technogene Ltd, Israel
T3 sequence (Q96Q83 1-286): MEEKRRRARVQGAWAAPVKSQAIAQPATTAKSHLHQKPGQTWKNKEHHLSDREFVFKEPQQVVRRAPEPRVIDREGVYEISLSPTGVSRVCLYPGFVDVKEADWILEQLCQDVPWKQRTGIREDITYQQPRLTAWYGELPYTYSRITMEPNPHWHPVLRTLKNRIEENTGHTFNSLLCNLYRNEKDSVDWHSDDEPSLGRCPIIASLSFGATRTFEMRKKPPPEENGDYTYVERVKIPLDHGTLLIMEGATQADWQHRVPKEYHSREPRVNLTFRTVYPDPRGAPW
Briefly: MALDI-based inhibition assay for ALKBH3. Format: biochemical. The following applies: 8-mer ssDNA substrate. On the procedure: MALDI-based inhibition assays for ALKBH3
An 8-mer m1A-ssDNA substrate with the sequence 5’-CAG(m1A)ATTC-3’ (Yale University, W.M. Keck Foundation Biotechnology Resource Laboratory) was used in this inhibition assay. The assay was performed in triplicate for each inhibitor, in a final reaction volume of 25 µL. Reaction consisted of ALKBH3 (2 µM), 2OG (150 µM), (NH4)2Fe(SO4)2·6H2O (150 µM), L-ascorbate (2 mM), […] (100 µM), in 50 mM HEPES buffer, pH 7.5, and inhibitor at various concentrations (final DMSO concentration not more than 1% v/v of assay mix). The reaction was incubated at room temperature for 30 min, before 1:1 quenching with 20% v/v formic acid. 1 uL of the diluted assay mixture was then mixed with 1 uL of 3-hydroxpicolinic acid (3-HPA, the MALDI-TOF-MS matrix, Sigma-Aldrich) and spotted onto the MALDI-TOF-MS plate before analysis. The 3-HPA matrix was prepared by mixing 9 parts of 50 mg/mL 3-hydroxpicolinic acid in 50% MeCN/Milli-Q H2O with 1 part of 50 mg/mL ammonium citrate in Milli-Q H2O.
The percentage inhibition was estimated based on the relative intensities of the methylated substrate and the demethylated product observed in the mass spectra. […]
Reaction consisted of PHD2 (4 µM), 2OG (150 µM),

On to `O=C(O)/C=C/C(=O)NNC(=O)c1cnccc1Cc1ccccc1` [Compound 12], for which the figures for the ΔTm at 100 µM at AlkB [1] and on ALKBH2 [2] were 4.5 °C and 4.9 °C, respectively. The IC50 on AlkB [3] was 33.5 µM; at ALKBH2 [4], 25.9 µM; against ALKBH3, 66.2 µM.
For the compound `O=C(O)/C=C/C(=O)NNC(=O)c1ccccn1` [Compound 23], the values for the ΔTm at 100 µM on AlkB [1] and at ALKBH2 [2] were 1.5 °C and 2.3 °C, respectively. Besides, the results for the IC50 at AlkB [3], on ALKBH2 [4] and against ALKBH3 were 181 µM, 127 µM and 168 µM, respectively.
As to `O=C(O)/C=C/C(=O)NNC(=O)c1cccnc1` [Compound 21], the ΔTm at 100 µM at AlkB [1] was found to be 1.8 °C; on ALKBH2 [2], 2 °C. Also, the IC50 against AlkB [3] was 169 µM; at ALKBH2 [4] it was 152 µM and > 100 µM; against ALKBH3 it was 115 µM.
`O=C(O)C=CC(=O)NNC(=O)c1cc(Cc2ccccc2)ccn1` [Compound 22]: the ΔTm at 100 µM amounted to 3.2 °C at AlkB [1] and 3.7 °C on ALKBH2 [2]. Moreover, the IC50 was 67.1 µM on AlkB [3], 39.9 µM at ALKBH2 [4] and 53.5 µM against ALKBH3.
